Assay: Inhibition of human recombinant FBPase using fructose-1,6-biphosphate as substrate incubated for 3 mins prior to substrate addition by spectrophotometric analysis

Row | Compound | IC50
1 | CCOc1cc2ncnc(Nc3cccc(-c4cc[nH]n4)c3)c2cc1OCC | 0.73 µM
2 | O=C(O)CCc1c(CO)[nH]c2cc(Cl)cc(Cl)c12 | > 10 µM
3 | CCOc1cc2ncnc(Nc3ccc(Cl)c(Cl)c3)c2cc1OCC | > 10 µM
4 | CCOc1cc2nc(CC)nc(Nc3cccc(-c4csc(C)n4)c3)c2cc1OCC | 1.5 µM
5 | Nc1ncnc2c1ncn2[C@@H]1O[C@H](COP(=O)(O)O)[C@@H](O)[C@H]1O [ADENOSINE PHOSPHATE] | 12.3 µM
6 | CCOc1cc2ncnc(Nc3cccc(-c4csc(C5CC5)n4)c3)c2cc1OCC | 0.83 µM
7 | O=C(CCc1c(C(=O)O)[nH]c2cc(Cl)cc(Cl)c12)NO | 1.5 µM
8 | CCOc1cc2ncnc(Nc3cccc(-c4csc(OC)n4)c3)c2cc1OCC | 0.78 µM
9 | CCOc1cc2ncnc(Nc3ccc(F)c(-c4csc(C)n4)c3)c2cc1OCC | 0.61 µM
10 | CCOc1cc2ncnc(Nc3cccc(-c4csc(C)n4)c3)c2cc1OC | 3.4 µM
11 | CCCOc1cc2ncnc(Nc3cccc(-c4csc(C)n4)c3)c2cc1OC | ≥ 5.6 µM
12 | CCOc1cc2nc(CN(C)C)nc(Nc3cccc(-c4csc(C)n4)c3)c2cc1OCC | 2 µM
13 | CCOc1ccc(-c2csc(C)n2)cc1Nc1ncnc2cc(OCC)c(OCC)cc12 | 1.8 µM
14 | COc1cc2c(Nc3cccc(-c4csc(C)n4)c3)ncnc2cc1OC(C)C | 2.3 µM
15 | CCOc1cc2ncnc(Nc3cccc(-c4ccccc4)c3)c2cc1OCC | > 10 µM
16 | CCOc1cc2nc(Cl)nc(Nc3cccc(-c4csc(C)n4)c3)c2cc1OCC | 2.6 µM
17 | CCOc1cc2ncnc(Nc3cccc(-c4nc[nH]n4)c3)c2cc1OCC | 0.64 µM
18 | CN(C)C(=O)c1[nH]c2cc(Cl)cc(Cl)c2c1CCC(=O)O | > 10 µM
19 | COc1cc2c(Nc3cccc(-c4csc(C)n4)c3)ncnc2cc1OC1CCCC1 | > 10 µM
20 | COc1cc2ncnc(Nc3cccc(Cl)c3)c2cc1OC [TYRPHOSTIN AG-1478] | 1.3 µM
21 | CCCOc1cc2c(Nc3cccc(-c4csc(C)n4)c3)ncnc2cc1OC | > 10 µM
22 | CCOc1cc2ncnc(Nc3cccc(-c4csc(C(N)=O)n4)c3)c2cc1OCC | 0.93 µM
23 | O=C(O)CCc1c(C(=O)O)[nH]c2cc(Cl)cc(Cl)c12 | ≥ 2.5 µM
24 | CCOc1cc2nc(Cc3ccccc3)nc(Nc3cccc(Br)c3)c2cc1OCC | > 10 µM

Row | Compound | IC50
25 | CCOc1cc2ncnc(Nc3cc(-c4csc(C)n4)c(F)cc3F)c2cc1OCC | > 10 µM
26 | Nc1cc2c(Nc3cccc(Br)c3)ncnc2cc1Cl | > 10 µM
27 | CCOc1cc2nc(CCN)nc(Nc3cccc(-c4csc(C)n4)c3)c2cc1OCC | 0.22 µM
28 | CCOc1cc2ncnc(Nc3cccc(-c4nccs4)c3)c2cc1OCC | 0.38 µM
29 | CCN(CC)c1nc(Nc2cccc(Br)c2)c2cc(OC)c(OC)cc2n1 | > 10 µM
30 | CCCc1nc(-c2cccc(Nc3ncnc4cc(OCC)c(OCC)cc34)c2)cs1 | > 10 µM
31 | C#Cc1cccc(Nc2ncnc3cc(OC)c(OC)cc23)c1 | 0.9 µM
32 | CCOc1cc2c(Nc3cccc(-c4csc(C)n4)c3)ncnc2cc1OC(C)C | 0.42 µM
33 | CCOc1cc2ncnc(Nc3cccc(Cl)c3)c2cc1OCC | 1.6 µM
34 | Cc1nc(-c2cccc(Nc3ncnc4cc5c(cc34)OCCO5)c2)cs1 | > 10 µM
35 | CCOc1cc2ncnc(Nc3cccc(-c4nc(C)cs4)c3)c2cc1OCC | 0.65 µM
36 | CCOc1cc2nc(CS(C)(=O)=O)nc(Nc3cccc(-c4csc(C)n4)c3)c2cc1OCC | 2.1 µM
37 | CCOc1cc2nc(CCl)nc(Nc3cccc(Br)c3)c2cc1OCC | > 10 µM
38 | CCOc1cc2ncnc(Nc3ccccc3)c2cc1OCC | > 10 µM
39 | CCCc1nc(Nc2cccc(-c3csc(C)n3)c2)c2cc(OCC)c(OCC)cc2n1 | 1.4 µM
40 | CCOc1cc2ncnc(Nc3cccc(-c4cnc(C)o4)c3)c2cc1OCC | 4 µM
41 | COCCOc1cc2c(Nc3cccc(Br)c3)ncnc2cc1OC | 5.5 µM
42 | NC(=O)CCc1c(C(=O)O)[nH]c2cc(Cl)cc(Cl)c12 | 2.2 µM
43 | CCOc1cc2c(Nc3cccc(-c4csc(C)n4)c3)ncnc2cc1OC | 1.2 µM
44 | O=C(O)CCCc1c(C(=O)O)[nH]c2cc(Cl)cc(Cl)c12 | 1 µM
45 | CCOc1cc2ncnc(Nc3cccc(-c4csc(Cc5ccccc5)n4)c3)c2cc1OCC | > 10 µM
46 | O=C(O)c1ccc2c(Nc3cccc(Br)c3)ncnc2c1 | > 10 µM
47 | CCOc1cc2ncnc(Nc3cccc(-c4ccccc4C)c3)c2cc1OCC | > 10 µM

Now from value to compound:

Row | IC50 | Compound
48 | > 10 µM | CCOc1cc2ncnc(Nc3cccc(-c4csc(C(=O)O)n4)c3)c2cc1OCC
49 | 1 µM | CCCOc1cc2ncnc(Nc3cccc(-c4csc(C)n4)c3)c2cc1OCC
50 | 0.77 µM | CCOc1cc2nc(-n3ccnc3)nc(Nc3cccc(-c4csc(C)n4)c3)c2cc1OCC
51 | > 10 µM | CCC(C)Oc1cc2ncnc(Nc3cccc(-c4csc(C)n4)c3)c2cc1OC (stereo not given)
52 | > 10 µM | CCOc1cc2ncnc(Nc3cccc(-c4csc(-c5ccccc5)n4)c3)c2cc1OCC
53 | > 10 µM | CCOc1cc2nc(C(F)(F)F)nc(Nc3cccc(-c4csc(C)n4)c3)c2cc1OCC
54 | 1.8 µM | CCOc1cc2ncnc(Nc3cc(-c4csc(C)n4)ccc3C)c2cc1OCC
55 | 3.5 µM | COc1cc(-c2ccc(OC)nc2)c2oc(NS(=O)(=O)c3cc(Cl)ccc3Cl)nc2c1
56 | > 10 µM | CCOc1cc2ncnc(Nc3ccc(Cl)c(C)c3)c2cc1OCC
57 | > 10 µM | CCOc1cc2nc(CN(CC)CC)nc(Nc3cccc(Br)c3)c2cc1OCC
58 | > 10 µM | COc1cc2ncnc(Nc3cccc(-c4csc(C)n4)c3)c2cc1OC(C)C
59 | ≥ 0.64 µM | CCOc1cc2ncnc(Nc3cccc(-c4csc(C)n4)c3)c2cc1OCC
60 | 3.6 µM | CCOc1cc2ncnc(Nc3cccc(Br)c3)c2cc1[N+](=O)[O-]
61 | 5 µM | CCOc1cc2nc(C(C)C)nc(Nc3cccc(-c4csc(C)n4)c3)c2cc1OCC
62 | 1 µM | CCOc1cc2nc(C)nc(Nc3cccc(-c4csc(C)n4)c3)c2cc1OCC
63 | > 10 µM | O=[N+]([O-])c1cc2c(Nc3cccc(Br)c3)ncnc2cc1Cl
64 | > 10 µM | CCOc1cc2ncnc(Nc3cccc(-c4cccc(C)c4)c3)c2cc1OCC

Row | IC50 | Compound
65 | 1.7 µM | CCOc1cc2ncnc(Nc3cccc(Br)c3)c2cc1OCC
66 | 6 µM | CCNCc1nc(Nc2cccc(-c3csc(C)n3)c2)c2cc(OCC)c(OCC)cc2n1
67 | 9.2 µM | CCOc1cc2ncnc(Nc3cccc(F)c3)c2cc1OCC
68 | 4.5 µM | CCOc1cc2ncnc(Nc3cccc(-c4csc(NN)n4)c3)c2cc1OCC
69 | > 10 µM | CC(C)Oc1ccc2ncnc(Nc3cccc(Br)c3)c2c1
70 | > 10 µM | CCOC(=O)c1[nH]c2cc(Cl)cc(Cl)c2c1CCC(=O)O
71 | 0.5 µM | CCOc1cc2ncnc(Nc3cccc(-c4coc(C)n4)c3)c2cc1OCC
72 | 1.5 µM | CCOc1cc2nc(CN)nc(Nc3cccc(-c4csc(C)n4)c3)c2cc1OCC
73 | 0.87 µM | CCOc1cc2nc(CCl)nc(Nc3cccc(-c4csc(C)n4)c3)c2cc1OCC
74 | 1.2 µM | CCOc1cc2ncnc(Nc3cccc(-c4cncnc4)c3)c2cc1OCC
75 | > 10 µM | CCOc1cc2ncnc(Nc3cccc(C(=O)CBr)c3)c2cc1OCC
76 | 2.1 µM | CCOc1cc2ncnc(Nc3cc(-c4csc(C)n4)ccc3CC)c2cc1OCC
77 | 0.57 µM | COc1cc(-c2cccc(N)c2)c2oc(NS(=O)(=O)c3cc(Cl)ccc3Cl)nc2c1
78 | > 10 µM | CCOc1cc2ncnc(Nc3cccc(-c4ccc(C)cc4)c3)c2cc1OCC
79 | 1.4 µM | CCOc1cc2ncnc(Nc3cccc(-c4cccnc4)c3)c2cc1OCC
80 | > 10 µM | CCOc1cc2nc(Cc3ccccc3)nc(Nc3cccc(-c4csc(C)n4)c3)c2cc1OCC

From ChEMBL document CHEMBL2086262, “Ligand-based designing, in silico screening, and biological evaluation of new potent fructose-1,6-bisphosphatase (FBPase) inhibitors” (Eur J Med Chem, 2012)
